Source: PubChem BioAssay AID256 (DTP/NCI, 2004)
Several values for one entry are separate records, joined by “and”; a condition that tells them apart may be missing. Equal values may be shown once. Inconclusive results and toxic doses are left out.

System: CD2F1 mice, L1210 leukemia ip, survival T/C
Assay: NCI In Vivo Anticancer Drug Screen. Data for tumor model L1210 Leukemia (intraperitoneal) in CD2F1 (CDF1) mice
Conditions: higher = longer survival
Method in brief: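 Transplantable tumor in mice; compound-treated vs vehicle-treated groups. Read-out = treated/control ratio of the measured endpoint.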

[1] = endpoint: mean survival time, dose: 100.0 mg/kg/injection, schedule: Q01DX001 (ip), vehicle: saline with Tween-80
[2] = endpoint: mean survival time, dose: 200.0 mg/kg/injection, schedule: Q01DX001 (ip), vehicle: saline with Tween-80
[3] = endpoint: mean survival time, dose: 400.0 mg/kg/injection, schedule: Q01DX001 (ip), vehicle: saline with Tween-80
[4] = endpoint: mean survival time, dose: 100.0 mg/kg/injection, schedule: Q01DX009 (ip), vehicle: saline with Tween-80
[5] = endpoint: mean survival time, dose: 200.0 mg/kg/injection, schedule: Q01DX009 (ip), vehicle: saline with Tween-80
[6] = endpoint: mean survival time, dose: 400.0 mg/kg/injection, schedule: Q01DX009 (ip), vehicle: saline with Tween-80
[7] = endpoint: mean survival time, dose: 100.0 mg/kg/injection, schedule: Q04DX002 (ip), vehicle: saline with Tween-80
[8] = endpoint: mean survival time, dose: 200.0 mg/kg/injection, schedule: Q04DX002 (ip), vehicle: saline with Tween-80
[9] = endpoint: mean survival time, dose: 400.0 mg/kg/injection, schedule: Q04DX002 (ip), vehicle: saline with Tween-80
[10] = endpoint: mean survival time, dose: 100.0 mg/kg/injection, schedule: Q01DX001 (ip), vehicle: saline
[11] = endpoint: mean survival time, dose: 200.0 mg/kg/injection, schedule: Q01DX001 (ip), vehicle: saline
[12] = endpoint: mean survival time, dose: 400.0 mg/kg/injection, schedule: Q01DX001 (ip), vehicle: saline
[13] = endpoint: mean survival time, dose: 12.5 mg/kg/injection, schedule: Q01DX009 (ip), vehicle: other
[14] = endpoint: mean survival time, dose: 25.0 mg/kg/injection, schedule: Q01DX009 (ip), vehicle: other
[15] = endpoint: mean survival time, dose: 25.0 mg/kg/injection, schedule: Q01DX009 (ip), vehicle: saline with Tween-80
[16] = endpoint: mean survival time, dose: 50.0 mg/kg/injection, schedule: Q01DX009 (ip), vehicle: other
[17] = endpoint: mean survival time, dose: 50.0 mg/kg/injection, schedule: Q01DX009 (ip), vehicle: saline with Tween-80
[18] = endpoint: mean survival time, dose: 100.0 mg/kg/injection, schedule: Q01DX009 (ip), vehicle: other
[19] = endpoint: mean survival time, dose: 200.0 mg/kg/injection, schedule: Q01DX009 (ip), vehicle: other
[20] = endpoint: mean survival time, dose: 10.0 mg/kg/injection, schedule: Q01DX009 (ip), vehicle: Klucel (hydroxypropylcellulose) (HPC)
[21] = endpoint: mean survival time, dose: 100.0 mg/kg/injection, schedule: Q04DX003 (ip), vehicle: saline with Tween-80
[22] = endpoint: mean survival time, dose: 200.0 mg/kg/injection, schedule: Q04DX003 (ip), vehicle: saline with Tween-80
[23] = endpoint: mean survival time, dose: 400.0 mg/kg/injection, schedule: Q04DX003 (ip), vehicle: saline with Tween-80

For `CN1CC(=O)C(=N)C1=S`, the T/C [1] was 90 % of control, the T/C [2] was 93 % of control and the T/C [3] was 90 % of control.
For `CC(C)(c1ccc(O)cc1)c1ccc(O)cc1`, the T/C [4] was 102 % of control, the T/C [5] was 104 % of control and the T/C [6] was 100 % of control.
In the case of `COc1c(C)c2c(c(OC(C)=O)c1CC(=O)C(C)(O)CCC(=O)O)C(=O)OC2` (configuration not stated), the T/C [7] is reported as 103 % of control, the T/C [8] is reported as 96 % of control and the T/C [9] is reported as 112 % of control.
With `O=C(Nc1cc(Cl)cc(Cl)c1)C(F)(F)F` the T/C [10] was 107 % of control, the T/C [11] was 101 % of control and the T/C [12] was 101 % of control.
With `COC(=O)[C@]1(C)CCC[C@]2(C)c3cc(C(C)=O)c(C(C)C)cc3CC[C@@H]12` the T/C [4] was 97 % of control, the T/C [5] was 97 % of control and the T/C [6] was 100 % of control.
`CSc1ccc(NC(=O)N(CCCl)N=O)cc1` was tested, and the T/C (endpoint: mean survival time, dose: 2.3 mg/kg/injection, schedule: Q01DX001 (ip), vehicle: other) was 121 % of control and the T/C (endpoint: mean survival time, dose: 3.5 mg/kg/injection, schedule: Q01DX001 (ip), vehicle: other) was 122 % of control.
For `CN(C)N=Nc1c(F)c(F)c(F)c(F)c1F`, the T/C [13] was 98 % of control, the T/C [14] was 102 % of control and the T/C [15] was 106 % of control. For the same compound, the T/C [16] was 104 % of control, the T/C [17] was 104 % of control and the T/C [18] was 104 % of control. The T/C [4] was 107 % of control and the T/C [19] was 115 % of control.
For `O=C(C#Cc1ccccc1)N1CCCCC1`, the T/C (endpoint: mean survival time, dose: 25.0 mg/kg/injection, schedule: Q04DX002 (ip), vehicle: saline with Tween-80) was 99 % of control, the T/C (endpoint: mean survival time, dose: 50.0 mg/kg/injection, schedule: Q04DX002 (ip), vehicle: saline with Tween-80) was 99 % of control and the T/C [7] was 101 % of control. For the same compound, the T/C [8] was 92 % of control.
With `Cc1cc(NCCN(C(C)C)C(C)C)nc(/N=C(\N)Nc2ccc(Cl)c(C(F)(F)F)c2)n1` the T/C (endpoint: mean survival time, dose: 1.25 mg/kg/injection, schedule: Q01DX009 (ip), vehicle: Klucel (hydroxypropylcellulose) (HPC)) was 98 % of control, the T/C (endpoint: mean survival time, dose: 2.5 mg/kg/injection, schedule: Q01DX009 (ip), vehicle: Klucel (hydroxypropylcellulose) (HPC)) was 103 % of control and the T/C (endpoint: mean survival time, dose: 5.0 mg/kg/injection, schedule: Q01DX009 (ip), vehicle: Klucel (hydroxypropylcellulose) (HPC)) was 105 % of control. The T/C [20] was 101 % of control, the T/C (endpoint: mean survival time, dose: 20.0 mg/kg/injection, schedule: Q01DX009 (ip), vehicle: Klucel (hydroxypropylcellulose) (HPC)) was 100 % of control and the T/C (endpoint: mean survival time, dose: 40.0 mg/kg/injection, schedule: Q01DX009 (ip), vehicle: Klucel (hydroxypropylcellulose) (HPC)) was 88 % of control.
In the case of `COC(=O)C1CCC[N+](C)(C)C1` (configuration not stated), the T/C (endpoint: mean survival time, dose: 25.0 mg/kg/injection, schedule: Q01DX009 (ip), vehicle: saline) is reported as 100 % of control and the T/C (endpoint: mean survival time, dose: 50.0 mg/kg/injection, schedule: Q01DX009 (ip), vehicle: saline) is reported as 93 % of control.
`COc1cc(C(Cl)C2OC(CO)C(O)C2O)nc(C)n1` (configuration not stated) was tested, and the T/C (endpoint: median survival time, dose: 18.38 mg/kg/injection, schedule: Q01DX005 (ip), vehicle: saline) was 110 % of control, the T/C (endpoint: median survival time, dose: 26.0 mg/kg/injection, schedule: Q01DX005 (ip), vehicle: saline) was 103 % of control and the T/C (endpoint: median survival time, dose: 36.75 mg/kg/injection, schedule: Q01DX005 (ip), vehicle: saline) was 97 % of control. For the same compound, the T/C (endpoint: median survival time, dose: 52.0 mg/kg/injection, schedule: Q01DX005 (ip), vehicle: saline) was 102 % of control, the T/C (endpoint: median survival time, dose: 73.5 mg/kg/injection, schedule: Q01DX005 (ip), vehicle: saline) was 100 % of control and the T/C (endpoint: median survival time, dose: 104.0 mg/kg/injection, schedule: Q01DX005 (ip), vehicle: saline) was 107 % of control. The T/C (endpoint: median survival time, dose: 147.0 mg/kg/injection, schedule: Q01DX005 (ip), vehicle: saline) was 103 % of control and the T/C (endpoint: median survival time, dose: 208.0 mg/kg/injection, schedule: Q01DX005 (ip), vehicle: saline) was 101 % of control.
For `CCOC(=O)C1C(=O)N(c2ccccc2)C(=O)N1c1ccccc1` (configuration not stated), the T/C [13] was 89 % of control, the T/C [14] was 89 % of control and the T/C [16] was 103 % of control. For the same compound, the T/C [18] was 93 % of control and the T/C [19] was 98 % of control.
With `CC(C)(C)OC(=O)NOC(=O)C(C)(C)C` the T/C (endpoint: mean survival time, dose: 25.0 mg/kg/injection, schedule: Q04DX003 (ip), vehicle: saline with Tween-80) was 101 % of control, the T/C (endpoint: mean survival time, dose: 50.0 mg/kg/injection, schedule: Q04DX003 (ip), vehicle: saline with Tween-80) was 100 % of control and the T/C [21] was 96 % of control. For the same compound, the T/C [22] was 89 % of control and the T/C [23] was 87 % of control.
`CCN(CC)c1ccc2c(-c3ccccc3C(=O)O)c3ccc(=[N+](CC)CC)cc-3oc2c1` was tested, and the T/C (endpoint: mean survival time, dose: 5.0 mg/kg/injection, schedule: Q04DX003 (ip), vehicle: saline with Tween-80) was 105 % of control, the T/C (endpoint: mean survival time, dose: 10.0 mg/kg/injection, schedule: Q04DX003 (ip), vehicle: saline with Tween-80) was 105 % of control and the T/C (endpoint: mean survival time, dose: 20.0 mg/kg/injection, schedule: Q04DX003 (ip), vehicle: saline with Tween-80) was 102 % of control. For the same compound, the T/C [4] was 101 % of control, the T/C [5] was 103 % of control and the T/C [6] was 100 % of control.
With `O/N=C/C1CCCC[N-]1.O/N=C/C1CCCC[N-]1.O/N=C/C1CCCC[N-]1.[Cu]` (configuration not stated) the T/C (endpoint: median survival time, dose: 0.75 mg/kg/injection, schedule: Q03HX024 (ip), vehicle: saline) was 95 % of control, the T/C (endpoint: median survival time, dose: 1.5 mg/kg/injection, schedule: Q03HX024 (ip), vehicle: saline) was 95 % of control and the T/C (endpoint: median survival time, dose: 6.0 mg/kg/injection, schedule: Q03HX024 (ip), vehicle: saline) was 104 % of control. For the same compound, the T/C (endpoint: median survival time, dose: 8.0 mg/kg/injection, schedule: Q03HX024 (ip), vehicle: saline) was 179 % of control.
`O=C1c2c(Cl)c(Cl)c(Cl)c(Cl)c2C(=O)N1O` was tested, and the T/C [21] was 98 % of control, the T/C [5] was 98 % of control and the T/C [22] was 98 % of control. For the same compound, the T/C [23] was 101 % of control.
`CC(C)OC(=O)Nc1nc2ccccc2s1` was tested, and the T/C [7] was 92 % of control, the T/C [8] was 95 % of control and the T/C [9] was 92 % of control.
In the case of `BrCC1OCCCO1`, the T/C (endpoint: mean survival time, dose: 12.5 mg/kg/injection, schedule: Q01DX009 (ip), vehicle: saline with Tween-80) is reported as 105 % of control, the T/C [15] is reported as 111 % of control and the T/C [17] is reported as 115 % of control.
For `O=C(O)c1ccccc1N(CCO)CCCl`, the T/C (endpoint: mean survival time, dose: 3.13 mg/kg/injection, schedule: Q01DX009 (ip), vehicle: saline with Tween-80) was 121 % of control and 110 % of control, the T/C (endpoint: mean survival time, dose: 6.25 mg/kg/injection, schedule: Q01DX009 (ip), vehicle: saline with Tween-80) was 119 % of control and the T/C [20] was 186 % of control.
For `COC1OC(CCl)C(Cl)C2OS(=O)(=O)OC12` (configuration not stated), the T/C [10] was 97 % of control, the T/C [11] was 100 % of control and the T/C [12] was 96 % of control.
With `Cc1ccc(S(=O)(=O)OC(c2ccc(Cl)cc2)C(F)(F)F)cc1` (configuration not stated) the T/C [1] was 101 % of control, the T/C [4] was 93 % of control and the T/C [2] was 95 % of control. For the same compound, the T/C [5] was 86 % of control, the T/C [3] was 101 % of control and the T/C [6] was 87 % of control.
